One compound from patent US20130085109A1, “METHODS OF CARDIOVASCULAR PATIENT TREATMENT USING SUBSTANCES SUFFICIENT TO REDUCE ACTIN DEPOLYMERIZATION” (priority 2008, published 2013) can be followed below.

One experiment deals with NADPH oxidase. Put plainly: NADPH oxidase activity assay in subcellular membrane preparations of vessels. It counts as in vivo, swine. The following applies: jasplakinolide treatment (0.1 μM prefill). Here is the method: (§1) In some experiments (n=3), the carotid arteries were treated with jasplakinolide to stablize the actin. […] The right side vessel 114 was filled with saline and served as control. The reverse or forward flows were then ensured for 2 hrs (for superoxide measurement) or 4 hrs (for NADPH oxidase measurment by western blot) after clamps 116, 118 were released. A low concentration of jasplakinolide was used, which was sufficient to stabilize actin and to avoid possible non-specific effects at high concentration. […]
Stored samples were placed in ice cold lysis buffer containing 20 mM KH2PO4, 1 mM EGTA and protease inhibitor cocktail (Sigma-Aldrich, St. Louis, Mo.) and homogenized with an electric homogenizer (Power Gen 35, Fisher Scientific) for 20 seconds each. […] The enzyme activity was determined in 200 μl assay buffer at pH7.4 containing the following (in mM): HEPES, 25; NaCl, 120; KCl, 5.9; MgSO4, 1.2; CaCl2, 1.75; glucose, 11; β-NADPH, 0.1; and L012, 0.1. The reaction started by adding 10 μL of homogenate, and the luminescence was measured every 15 seconds for 5 minutes by Perkin Elmer plate reader at ultra-sensitive mode. The protein concentration was determined by BCA kit (Bio-Rad) and the results of enzyme activity were standardized to protein level of each sample. […]

Experiment [1] has as its system carotid artery with reverse flow. Put plainly: Superoxide measurement (L012 luminescence) in carotid arteries after in vivo reverse flow with drug treatment. Also noted: species or system swine. The settings on record: vessel prefilled with 0.1 μM jasplakinolide 10 minutes; reverse flow 2 hrs. The text has this:
To create a full reverse flow, and as part of an exemplary system 100 of the present disclosure, two tubes 102, such as two pieces of silicone tubing, were inserted into the two respective ends of the isolated vessel segment 104 as shown in FIGS. 1A and 1B. In at least one embodiment, tubes 102 are configured to fit within a portion of isolated vessel segment 104, and in at least another embodiment, tubes 102 are configured so surround the ends of vessel segment and are held in place with a connector (not shown). […]
The harvested vessels (vessel segments 104) were cut into small rings at approximately 3 mm in length in 37° C. […] The L012 (100 μM) was added last and the luminescence was recorded for 60 minutes at 1 minute intervals using a plate reader from Perkin Elmer (En vision Xcite Multilabel Reader, Perkin Elmer, Shelton, Conn.) at ultra-luminecent mode. […]
Samples were obtained from carotid arteries with forward (solid bar) or reverse (empty bar) flow (FF or RF, respectively) or reverse flow plus jasplakinolide (Jasp) treatment (lined bar). The basal level of superoxide measured under forward flow condition was taken as 100%, and all other measurements were expressed as percentage to the basal level. Each measurement was performed in triplicate and data were expressed as mean±1SD. […]

For experiment [2], the system named is carotid artery rings (endothelial cells). Briefly: Superoxide measurement (L012 luminescence) in carotid artery rings treated in vitro. It counts as cell-based, swine. The following applies: 0.1 μM jasplakinolide; artery samples under normal forward flow. Here is the method:
For superoxide measurements, carotid arteries (vessel segments 104) from both sides were quickly removed and placed into a heated (37° C.) chamber filled with HEPES buffered PSS containing (in mM): D-glucose, 5.5; KCl, 4.7; NaCl, 142; HEPES sodium salt, 2.7; MgSO4, 1.17; CaCl2, 2.79; at pH 7.4. For NADPH oxidase activity assays or protein expression measurements by western blot, the left and right carotid arteries were removed and saved in a −80° C. freezer until analysis.
The harvested vessels (vessel segments 104) were cut into small rings at approximately 3 mm in length in 37° C. HEPES PSS buffer. The rings were first transferred into […] with HEPES-PSS and incubated at 37° C. for 5 minutes. Various compounds [cytochalason D, latrunculin B, jasplakinolide, and phorbol 2-myrisate 13-acetate (PMA)] were then added into each well for treatment. The L012 (100 μM) was added last and the luminescence was recorded for 60 minutes at 1 minute intervals using a plate reader from Perkin Elmer (En vision Xcite Multilabel Reader, Perkin Elmer, Shelton, Conn.) at ultra-luminecent mode. The total reaction volume was 200 μl. After each recording, the sample rings were air dried and weighed. Each condition was tested in triplicate. To remove the endothelial cells, the vessel ring was gently rubbed against the tip of a pair of forceps.
Basal superoxide production was detected in the carotid artery (vessel segment 104) samples obtained from control animals with forward blood flow as shown in FIG. 2A. Rings were incubated with or without treatments of cytochalasin D (cyt D), latrunculin (Latru) or jasplakinolide (Jasp) and the superoxide production were recorded using plate reader at ultrasensitive mode for luminescence to generate the results shown in FIG. 2A. The luminescence recorded from rings without treatment was considered at base level and taken as 100%. The luminescence recorded under other conditions was expressed as percentage of base level. The superoxide production induced by PMA was used as positive control as identified in FIG. 2B. Each condition was tested in triplicate from each animal. The significance of increased superoxide production was test using ANOVA (p=0.004 for cytochalasin D, n=10 and p=0.044 for Latrucillin, n=3), and the data are mean±1SD.

The next experiment relates to gp91phox and p47phox. Put plainly: Western blot for NADPH oxidase expression. It counts as in vivo, swine. The settings on record: jasplakinolide, four hours of treatment. Here is the method:
as §1
The artery segments were homogenized in the lysis buffer containing 50 mM glycerophosphate, 100 μM sodium orthovanadate, 2 mM magnesium chloride, 1 mM EGTA, 0.5% Triton X-100, 1 mM DL-dithiothreitol, 20 μM pepstatin, 20 μM leupeptin, 0.1 U/ml aprotinin, and 1 mM phenylmethylsulfonyl fluoride and then incubated on ice for 1 hour. […] The total protein was measured by a BCA kit (Bio-Rad). […]
The NADPH oxidase activity was examined using an enzyme assay in subcellular membrane prepared from vessels with different flow conditions. […] The data are expressed as ratio of enzyme activity measured in vessel from reverse flow (RF) or reverse flow with jasplakinolide (RF-Jasp) treatment vs forward flow (FF). […] The data are expressed as ratio of protein band density of reversed flow sample versus that from forward flow sample.
(In general: Immunoblotting shows a protein as a band on a membrane.)

In the case of `C/C1=C\[C@H](C)C[C@H](C)OC(=O)C[C@H](c2ccc(O)cc2)NC(=O)[C@@H](Cc2c(Br)[nH]c3ccccc23)N(C)C(=O)[C@H](C)NC(=O)[C@@H](C)C1` [jasplakinolide], in the experiment with NADPH oxidase, the “NADPH oxidase activity in vessel with reversed flow vs untreated vessel” value is reported as “decreased”. Further, the “increase of superoxide production on reversed blood flow” value in experiment [1] is “prevented”. Also, in experiment [2], the “superoxide level vs untreated samples” value was “not changed”. Also, in the experiment on gp91phox and p47phox, the “expression of NADPH oxidase subunits gp91phox and p47phox” value is recorded as “not changed”.
